Test systems include MALME-3M melanoma; RXF 393 renal; HL-60(TB) leukemia; ACHN renal; SN12C renal; KM12 colon; SNB-75 CNS; DU-145 prostate; HOP-62 NSCLC; HCT-15 colon.
What all share (assay): NCI anticancer screen, dose series, 48 h

Several values for one entry are separate records, joined by “and”; a condition that tells them apart may be missing. Equal values may be shown once.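 Method: 48-hour compound exposure of cells in 96-well plates, five concentrations, linear interpolation of endpoints. GI50 is the concentration that inhibits growth by half. TGI: concentration producing complete growth inhibition.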

As to `Cc1nn(-c2nc3ccccc3[nH]2)c2c1C(c1ccc3c(c1)OCO3)CC(=O)N2` (stereo not given), the GI50 is 2.12 µM in the assay with MALME-3M melanoma; 2.47 µM in the assay on RXF 393 renal; 2.84 µM in the assay on HL-60(TB) leukemia; 4.07 µM with ACHN renal; 2.77 µM in the assay on SN12C renal; 2.33 µM with KM12 colon. The GI50 in the assay with SNB-75 CNS was 2.69 µM; with DU-145 prostate, 3.23 µM; in the assay with HOP-62 NSCLC it was 2.38 µM; with HCT-15 colon it was 3.05 µM. The TGI in the assay on MALME-3M melanoma is 6.04 µM; with RXF 393 renal it was 6.26 µM; with HL-60(TB) leukemia, 7.74 µM; with ACHN renal, more than 100 µM; in the assay on SN12C renal, 9.77 µM; in the assay with KM12 colon, 5.45 µM. The TGI in the assay on SNB-75 CNS was 8.09 µM; in the assay with DU-145 prostate, 9.12 µM; with HOP-62 NSCLC, 5.21 µM; in the assay with HCT-15 colon, more than 100 µM.

On to `COc1cc(/C=C/C(=O)c2c(C)n([O-])c3ccc(Cl)cc3[n+]2=O)cc(OC)c1OC`, for which the GI50 was 14.1 µM in the assay on MALME-3M melanoma; 10.2 µM in the assay on RXF 393 renal; more than 100 µM in the assay with HL-60(TB) leukemia; more than 100 µM in the assay with ACHN renal; 67.6 µM in the assay on SN12C renal; more than 100 µM in the assay with KM12 colon. The GI50 with SNB-75 CNS was 17.3 µM; in the assay with DU-145 prostate, 21.7 µM; in the assay with HOP-62 NSCLC it was 60.2 µM; with HCT-15 colon it was more than 100 µM. Also, the TGI is 35.3 µM in the assay on MALME-3M melanoma; 30.2 µM with RXF 393 renal; more than 100 µM in the assay on HL-60(TB) leukemia; more than 100 µM in the assay with ACHN renal; more than 100 µM in the assay on SN12C renal; more than 100 µM in the assay on KM12 colon. Besides, the TGI in the assay with SNB-75 CNS is 40.6 µM; in the assay on DU-145 prostate, more than 100 µM; in the assay on HOP-62 NSCLC, more than 100 µM; in the assay on HCT-15 colon, more than 100 µM.

As to `Clc1ccc2c(c1)-c1ccccc1C1=NCCN12`, the GI50 in the assay on MALME-3M melanoma was 1.77 µM; in the assay with RXF 393 renal it was 1.51 µM; in the assay on HL-60(TB) leukemia, 2.43 µM; in the assay with ACHN renal, 1.12 µM; in the assay with SN12C renal, 2.41 µM; in the assay with KM12 colon, 2.56 µM. Moreover, the GI50 in the assay with SNB-75 CNS was 1.62 µM; in the assay on DU-145 prostate it was 2.02 µM; in the assay on HOP-62 NSCLC it was 1.98 µM; in the assay on HCT-15 colon it was 2.71 µM. Moreover, the TGI is 4.17 µM in the assay on MALME-3M melanoma; 2.98 µM in the assay on RXF 393 renal; 5.47 µM with HL-60(TB) leukemia; 9.3 µM in the assay with ACHN renal; 12.6 µM in the assay on SN12C renal; 7.79 µM in the assay on KM12 colon. Also, the TGI stood at 5.42 µM in the assay on SNB-75 CNS, 4.62 µM in the assay with DU-145 prostate, 6.02 µM in the assay with HOP-62 NSCLC and 9.62 µM in the assay with HCT-15 colon.

As to `COC(=O)[C@@H](C)C[C@H](Cc1ccccc1)NC(=O)c1csc([C@@H](C[C@H](C(C)C)N(C)C(=O)C2(NC(=O)[C@H]3CCCCN3C)CC2)OC(C)=O)n1`, the GI50 in the assay with MALME-3M melanoma is more than 33.3 µM; with RXF 393 renal, 0.0216 µM; in the assay on HL-60(TB) leukemia, 0.000657 µM and < 0.00333 µM; in the assay on SN12C renal, 0.0156 µM and 0.00333 µM; in the assay with KM12 colon, 0.00655 µM and 0.00333 µM; in the assay with SNB-75 CNS, 0.00434 µM and 0.00333 µM. The GI50 in the assay with DU-145 prostate is 0.00348 µM and 0.00333 µM; with HCT-15 colon it was 0.424 µM. The TGI was more than 33.3 µM in the assay with MALME-3M melanoma; 0.00685 µM and < 0.00333 µM with HL-60(TB) leukemia; more than 33.3 µM with ACHN renal; more than 33.3 µM in the assay on SN12C renal; more than 33.3 µM in the assay on KM12 colon; more than 33.3 µM with SNB-75 CNS. For the same compound, in the assay with HOP-62 NSCLC, the TGI was more than 33.3 µM.

`O=C(CCCCCCC(=O)Nc1ccc2c(c1)/C(=C/c1ccc[nH]1)C(=O)N2)NO`: the GI50 in the assay with MALME-3M melanoma was 0.0758 µM; with RXF 393 renal, 0.487 µM; in the assay with HL-60(TB) leukemia, 0.464 µM; in the assay on ACHN renal, 0.904 µM; in the assay on SN12C renal, 2.07 µM; in the assay with KM12 colon, 0.894 µM. Besides, the GI50 in the assay with SNB-75 CNS is 0.194 µM; with DU-145 prostate, 0.969 µM; in the assay on HOP-62 NSCLC, 0.353 µM; with HCT-15 colon it was 3.93 µM. The TGI was 35.4 µM in the assay with MALME-3M melanoma; 3.66 µM in the assay with RXF 393 renal; more than 100 µM in the assay with HL-60(TB) leukemia; 4.67 µM in the assay on ACHN renal; 26.5 µM in the assay on SN12C renal; more than 23.2 µM with KM12 colon. The TGI in the assay on SNB-75 CNS is 65.4 µM; in the assay with DU-145 prostate, 41.6 µM; in the assay with HOP-62 NSCLC, 4.49 µM; in the assay on HCT-15 colon, more than 49.3 µM.

On to `S=C(Nc1ccccc1)N(Cc1ccccc1)c1ccccc1`, for which the TGI is 37.2 µM in the assay on MALME-3M melanoma; 85 µM in the assay with RXF 393 renal; more than 100 µM in the assay on HL-60(TB) leukemia; more than 100 µM in the assay on ACHN renal; more than 100 µM in the assay on SN12C renal; 69.6 µM with KM12 colon. For the same compound, the TGI in the assay on SNB-75 CNS was more than 100 µM; in the assay with DU-145 prostate, 24.7 µM; with HOP-62 NSCLC, more than 100 µM; in the assay with HCT-15 colon, more than 100 µM.

Consider `NCCCCN(Cc1nc2ccccc2[nH]1)[C@H]1CCCc2cccnc21`, for which the GI50 was 13.2 µM in the assay with MALME-3M melanoma; 13.5 µM in the assay with RXF 393 renal; 5.34 µM in the assay with HL-60(TB) leukemia; 26.3 µM with ACHN renal; 14.9 µM with SN12C renal; 15.5 µM in the assay with KM12 colon. In addition, the GI50 with SNB-75 CNS is 8.53 µM; with DU-145 prostate it was 29.2 µM; with HOP-62 NSCLC it was 11.4 µM; with HCT-15 colon it was 24.3 µM. In addition, the TGI is 28.2 µM in the assay with MALME-3M melanoma; 66.8 µM in the assay with RXF 393 renal; 26.7 µM with HL-60(TB) leukemia; more than 100 µM in the assay on ACHN renal; more than 100 µM in the assay with SN12C renal; more than 100 µM with KM12 colon. Further, the TGI in the assay on SNB-75 CNS, in the assay with DU-145 prostate, with HOP-62 NSCLC and in the assay with HCT-15 colon was more than 100 µM throughout.
